The values that follow are results of earlier work, collected in patent US8067011B2, “Compositions and methods for treating B-cell malignancies” (Chimeros, Inc., priority 2006, dated 2011).

Data set [1] relates to diffuse large B-cell, CD20-positive, non-Hodgkin's lymphoma. The conditions noted are these: added to CHOP or other anthracycline-based chemotherapy, first-line DLBCL.
Data set [2] relates to relapsed or refractory, low-grade or follicular, CD20-positive, B-cell non-Hodgkin's lymphoma. The conditions noted are these: low-grade or follicular NHL.

For the substance “Rituxan: naked antibody that specifically binds to CD20, used for B cell-derived lymphomas and leukemias”, the “extension of progression free survival over chemotherapy alone” value in data set [1] is listed as “about 1.5 years”. In data set [2], the “median duration of response, defined as progression free survival” value is on record as “about 1 year” and the response rate entry is listed as “about 50%”.
